Source: patent US20220119355A1, “SATURATED-RING-FUSED DIHYDROPYRIMIDINONE OR DIHYDROTRIAZINONE COMPOUNDS AND PHARMACEUTICAL USE THEREOF” (Japan Tobacco Inc., priority 2018, published 2022)

Tests used:
human RORγ = target: T1, human RORγ (Homo sapiens, UniProt P51449); assay: In-vitro reporter gene assay for inhibitory activity against RORγ transcription, Test Method B (pFA/hRORγ LBD / pG5-Luc in CHO cells); assay type: cell-based; settings: for EC50: luciferase reporter, CHO cells, 2 days
T1 construct: from Ser253 to Lys518 for human RORγ; expressed in transfected cells; host or cells: CHO cells (transient co-transfection with pG5-Luc)
T1 sequence (P51449 253-518): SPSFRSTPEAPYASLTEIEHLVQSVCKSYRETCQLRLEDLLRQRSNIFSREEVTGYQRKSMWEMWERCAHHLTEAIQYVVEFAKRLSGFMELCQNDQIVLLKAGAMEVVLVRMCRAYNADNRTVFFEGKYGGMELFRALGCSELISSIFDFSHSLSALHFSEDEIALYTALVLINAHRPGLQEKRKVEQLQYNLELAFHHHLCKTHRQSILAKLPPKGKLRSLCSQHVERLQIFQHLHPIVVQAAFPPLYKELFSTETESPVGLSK
Procedure: (§1) In-Vitro Assay for Inhibitory Activity Against RORγ Transcription
(§2) Inhibitory activity against RORγ transcription was assessed for test compounds by either of the following Test Method A or B of reporter gene assay.
(§3) cDNAs encoding human and mouse RORγ ligand binding domains (LBD) were obtained based on the sequences of human RORγ (Genbank registered number NM_005060.3) and mouse RORγ (Genbank registered number NM_011281.2) (LBD sequences: from Ser253 to Lys518 for human RORγ; from Ile251 to Lys516 for mouse RORγ).
(§4) LBD cDNAs of human and mouse RORγ were inserted into pFA-CMV vector (Agilent Technologies, Inc.), which expresses GAL4-DNA binding domain fusion protein. The resulting plasmids are hereinafter referred to as pFA/hRORγ plasmid and pFA/mRORγ plasmid, respectively.
(§5) pFA/hRORγ plasmid or pFA/mRORγ plasmid was transiently co-transfected into Chinese hamster ovary cells (CHO cells) with pG5-Luc (Promega), reporter plasmid expressing firefly luciferase in a GAL4-dependent manner.
(§6) TransIT (Registered trademark) CHO Transfection Kit (Mirus) was used to co-transfect CHO cells with the plasmids. One day prior to the assay, CHO cells were suspended in HAM F-12 Nutrient medium containing 10% (v/v) fetal bovine serum and seeded at 5.5×10^6 cells per 225 cm^2 cell culture flask each. 72 μL of TransIT (Registered trademark) CHO reagent was added into a 2 mL tube containing 1.55 mL of Opti-MEM, and then mixed and incubated at room temperature for 10 minutes. 50.4 μL of a plasmid solution containing 300 ng of pFA/hRORγ plasmid, 12000 ng of pG5-Luc plasmid, and 11700 ng of pcDNA3.1 plasmid were added into the tube and mixed gently. In the case of mouse assay, a plasmid solution containing 300 ng of pFA/mRORγ plasmid, 12000 ng of pG5-Luc plasmid, and 11700 ng of pcDNA3.1 plasmid was added, instead. The mixture was incubated at room temperature for 10 minutes. 12 μL each of CHO Mojo Reagent were then added into each tube and mixed gently. The mixture was incubated at room temperature for 10 minutes. The resulting transfection reagent was applied to the cell culture. After incubation at 37° C., 5% CO2 for 4 hours, the plasmid-transfected CHO cells were harvested by trypsin treatment. The collected cells were resuspended in culture medium and plated into a 384-well-white plate at 8,000 cells/35 μL/well. The plate was let stand at room temperature for 1 hour and then further incubated at 37° C., 5% CO2 for 3 hours. A test compound was dissolved in dimethyl sulfoxide (DMSO) to obtain a concentration of 10 mM. Each solution was serially diluted with DMSO and further diluted with culture medium just before use. The test compound solutions were added to the cells in the plate at 6 different concentrations. The final concentration of DMSO was 0.2% (v/v). After the addition of test compound, the cells were incubated at 37° C., 5% CO2 for 2 days.
(§7) RORγ transcriptional activity was detected as the intracellular luciferase activity using SteadyLite HTS Reporter Gene Assay System (Perkin Elmer). SteadyLite Reagent was diluted 2.5-fold with Extension buffer (10 mM Tricine, 0.2% (w/v) bovine serum albumin, 0.02% (v/v) Tween-20) to obtain a luciferase substrate solution. Two days after the addition of test compound, 40 μL each of the luciferase substrate solution was added into the 384-well-plate. After the incubation at room temperature for 10 minutes, luminescence of each well was measured with a microplate reader. The luciferase activity derived from the luminescence count in a vehicle-control well treated with 0.2% DMSO alone was defined as 100%, and the luciferase activity after treatment of the test compound was calculated as a percentage, %-of-control, based on the value of the vehicle-control. An EC50 value of the test compound was calculated by curve fitting. The luminescence counts at the concentration of test compound where cytotoxicity was observed were excluded from data analysis. […]

mouse RORγ = target: T2, mouse RORγ (Mus musculus, UniProt P51450); assay: In-vitro reporter gene assay for inhibitory activity against RORγ transcription, Test Method B (pFA/mRORγ LBD / pG5-Luc in CHO cells); assay type: cell-based; settings: for EC50: luciferase reporter, CHO cells, 2 days
T2 construct: from Ile251 to Lys516 for mouse RORγ; expressed in transfected cells; host or cells: CHO cells (transient co-transfection with pG5-Luc)
T2 sequence (P51450 251-516): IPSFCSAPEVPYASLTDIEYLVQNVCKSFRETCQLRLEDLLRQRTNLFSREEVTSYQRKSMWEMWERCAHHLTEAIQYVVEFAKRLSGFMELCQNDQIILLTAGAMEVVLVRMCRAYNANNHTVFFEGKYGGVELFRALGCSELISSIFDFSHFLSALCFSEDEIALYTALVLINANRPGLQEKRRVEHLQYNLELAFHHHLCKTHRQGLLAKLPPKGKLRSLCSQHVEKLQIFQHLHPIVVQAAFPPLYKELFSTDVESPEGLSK
Procedure: as §1, §2, §3, §4, §5, §6, §7

[1] = vehicle-control 0.2% DMSO = 100%

Row | EC50 (human RORγ) [µM] | hRORγ luciferase activity after treatment with test compound, %-of-control (human RORγ; [1]) | EC50 (mouse RORγ) [µM] | mRORγ luciferase activity after treatment with test compound, %-of-control (mouse RORγ; [1]) | Compound
1 | > 10 | (84%) | > 10 | (84%) | CC(C)Oc1ccc(C23CCCCC2=CN(CCC(=O)O)C(=O)N3)cc1Cl (racemic) [Example 96]
2 | 0.206 |  | 0.055 |  | CC1(C)CC(COc2ccc(C34CCCCC3=CN(CCC(=O)O)C(=O)N4)cc2Cl)C1 (racemic) [Example 100]
3 | 7.28 |  | 1.39 |  | CCCCOc1ccc(C23CCCCC2=CN(CCC(=O)O)C(=O)N3)cc1Cl (racemic) [Example 101]
4 | 0.087 |  | 0.169 |  | CC1C2=CN(C34CC(C(=O)O)(C3)C4)C(=O)NC2(c2ccc(CCC(C)(C)C)c(Cl)c2)CC1(C)C (single isomer, unassigned) [Example 34]
5 | 4.19 |  | 4.97 |  | CC1C2=CN(C34CC(C(=O)O)(C3)C4)C(=O)NC2(c2ccc(CCC(C)(C)C)c(Cl)c2)CC1(C)C (single isomer, unassigned) [Example 35]
6 | 4.94 |  | 4.37 |  | CC(C)(C)CCc1ccc([C@]23CCC(F)(F)CC2=CN(C24CC(C(=O)O)(C2)C4)C(=O)N3)cc1Cl (single isomer, unassigned) [Example 86]
7 | 0.038 |  | 0.029 |  | CC(C)(C)CCc1ccc([C@@]23CCC(F)(F)CC2=CN(C24CC(C(=O)O)(C2)C4)C(=O)N3)cc1Cl (single isomer, unassigned) [Example 87]
8 | 3.71 |  | 4.19 |  | CC1CC[C@]2(c3ccc(CCC(C)(C)C)c(Cl)c3)NC(=O)N(C34CC(C(=O)O)(C3)C4)C=C2C1 (single isomer, unassigned) [Example 89]
9 | 0.022 |  | 0.023 |  | CC1CC[C@@]2(c3ccc(CCC(C)(C)C)c(Cl)c3)NC(=O)N(C34CC(C(=O)O)(C3)C4)C=C2C1 (single isomer, unassigned) [Example 90]
10 | 0.111 |  | 0.185 |  | CC1CC[C@]2(c3ccc(CCC(C)(C)C)c(Cl)c3)NC(=O)N(C34CC(C(=O)O)(C3)C4)C=C2C1 (single isomer, unassigned) [Example 91]
11 | 0.042 |  | 0.019 |  | CC1CC[C@@]2(c3ccc(CCC(C)(C)C)c(Cl)c3)NC(=O)N(C34CC(C(=O)O)(C3)C4)C=C2C1 (single isomer, unassigned) [Example 92]
12 | 3.97 |  | 4.23 |  | CCC1CC[C@]2(c3ccc(CCC(C)(C)C)c(Cl)c3)NC(=O)N(C34CC(C(=O)O)(C3)C4)C=C2C1 (single isomer, unassigned) [Example 93]
13 | 0.046 |  | 0.082 |  | CCC1CC[C@@]2(c3ccc(CCC(C)(C)C)c(Cl)c3)NC(=O)N(C34CC(C(=O)O)(C3)C4)C=C2C1 (single isomer, unassigned) [Example 94]
14 | 0.11 |  | 0.156 |  | CC(C)(C)CCc1ccc(C23CCC(C#N)CC2=CN(C24CC(C(=O)O)(C2)C4)C(=O)N3)cc1Cl (single isomer, unassigned) [Example 97]
15 | 4.36 |  | 5.11 |  | CC(C)C1CC[C@]2(c3ccc(CCC(C)(C)C)c(Cl)c3)NC(=O)N(C34CC(C(=O)O)(C3)C4)C=C2C1 (single isomer, unassigned) [Example 98]
16 | 0.053 |  | 0.146 |  | CC(C)C1CC[C@@]2(c3ccc(CCC(C)(C)C)c(Cl)c3)NC(=O)N(C34CC(C(=O)O)(C3)C4)C=C2C1 (single isomer, unassigned) [Example 99]
17 | 3.95 |  | 4.57 |  | CC(C)(C)CCc1ccc([C@]23CCC(C)(C)CC2=CN(C24CC(C(=O)O)(C2)C4)C(=O)N3)cc1Cl (single isomer, unassigned) [Example 102]
18 | 0.026 |  | 0.046 |  | CC(C)(C)CCc1ccc([C@@]23CCC(C)(C)CC2=CN(C24CC(C(=O)O)(C2)C4)C(=O)N3)cc1Cl (single isomer, unassigned) [Example 103]
19 | 5.26 |  | 5.28 |  | CC(C)C1CC[C@]2(c3ccc(CCC(C)(C)C)c(Cl)c3)NC(=O)N([C@H]3CC[C@@H](C(=O)O)C3)C=C2C1 (single isomer, unassigned) [Example 104]
